Results as given in US6172074A, “Imidazopyridines and oxazolopyridines” (Byk Gulden Lomberg Chemische Fabrik GmbH, priority 1996, dated 2001).
Where a name gives a salt, the structure may show the parent alone.

What follows are compounds tested on PDE4 (assay: Inhibition of the PDE4 activity (Bauer and Schwabe method, adapted to microtiter plates)). Settings: inhibitory concentration as -log IC50 (mol/l).
Assay type: biochemical

COc1ccc(-c2nc3cnccc3[nH]2)c2c1OC1(CCCC1)C2 [Compound 4, 2-(2,3-Dihydro-7-methoxybenzofuran-2-spiro-1'-cyclopentan-4-yl)imidazolo[4,5-c]pyridin] was tested. Which “-log IC50” value did it give?
Its value is 8.08.

With COc1ccc(-c2nc3ncccc3o2)c2c1OC1(CCCC1)C2 [Compound 1, 2-(2,3-Dihydro-7-methoxybenzofuran-2-spiro-1'-cyclopentan-4-yl)oxazolo[4,5-b]pyridine] as the compound, how does the “-log IC50” value read?
Its value is 7.93.

COc1ccc(-c2nc3cnccc3o2)c2c1OC1(CCCC1)C2 [Compound 3, 2-(2,3-Dihydro-7-methoxybenzofuran-2-spiro-1'-cyclopentan-4-yl)oxazolo[4,5-c]pyridine] was tested. Which “-log IC50” value did it give?
Its value is 8.76.

For COc1ccc(-c2nc3ncccc3[nH]2)c2c1OC1(CCCCC1)C2 [Compound 6, 2-(2,3-Dihydro-7-methoxybenzofuran-2-spiro-1'-cyclohexan-4-yl)imidazo[4,5-b]pyridine dihydrochloride hemihydrate], which “-log IC50” value is on record?
The value was 6.90.

Which “-log IC50” value does the source give for COc1ccc(-c2nc3c(Cl)nccc3[nH]2)c2c1OC1(CCCC1)C2 [Compound 7, 4-Chloro-2-(2,3-dihydro-7-methoxybenzofuran-2-spiro-1'-cyclopentan-4-yl)imidazo[4,5-c]pyridine] here?
The value was 7.98.

How did the “-log IC50” value turn out when COc1ccc(-c2nc3cnccc3[nH]2)c2c1OC1(CCCCC1)C2 [Compound 5, 2-(2,3-Dihydro-7-methoxybenzofuran-2-spiro-1'-cyclohexan-4-yl)imidazolo[4,5-c]pyridine] was run?
Its value is 7.52.

How did the “-log IC50” value turn out when COc1ccc(-c2nc3cccnc3o2)c2c1OC1(CCCC1)C2 [Compound 2, 2-(2,3-Dihydro-7-methoxybenzofuran-2-spiro-1'-cyclopentan-4-yl)oxazolo[5,4-b]pyridine] was run?
Its value is 6.61.
